Laboratory results from patent US20230183640A1, “METABOLIC INHIBITORS WITH EFFICACY FOR INHIBITING SULFIDE PRODUCTION IN HARSH ENVIRONMENTS” (MC (US) 3 LLC, priority 2020, published 2023).

Tests used:
[1] = system: Desulfovibrio longus 51456; experiment: H2S and Log (Growth) efficacy against SRB, 96-Well Plate Method; assay type: cell-based
Procedure: (§1) A lyophilized Desulfovibrio alaskensis 14563, Desulfovibrio longus 51456, and Desulfovibrio gabonensis 700201 pure cultures received from ATCC were resuspended individually in 500 ul of MB 1250. Aseptically, the content was transferred to a 5-mL tube of MB1250 medium. The cultures were incubated in an anaerobic chamber at 30° C. for 72 hrs. Subsequently, an individual stock culture with a final concentration of 25% glycerol were prepared by adding equal volumes of culture and 50% glycerol. 1 ml of the cultures were then transferred to 2-ml cryogenic vials and stored at −80° C. The purity of the stock cultures was evaluated through PCR, by amplifying the 16S rDNA region, and thus, it was verified that the original ATCC sample was a pure culture. 48-hour cultures of ATCC Desulfovibrio alaskensis 14563, Desulfovibrio longus 51456, and Desulfovibrio gabonensis 700201 were prepared in an anaerobic chamber. Each culture was prepared as a 1:10 culture by taking 1 milliliter (mL) of a pure culture and inoculating 9 milliliters (mL) of fresh MB1250 media. The Desulfovibrio alaskensis 14563 and Desulfovibrio gabonensis 700201 were all grown at 30° C. and the Desulfovibrio longus 51456 culture was grown at 35° C.
(§2) After the 48-hour incubation, 600 microliters (μL) were taken from each culture and optical density (OD) was measured using a Thermofisher Spectronic 200 Spectrophotometer at 600 nm. Each culture was diluted to 0.05 OD600 in fresh MB1250 media and added to the 96 well plates. Edge wells were not used due to their inherent variability and evaporation of the media. Each of the components were added at their respective concentrations for a final volume of 500 μL per well. In Table 3, 6 and 7, the concentrations of the compound used for the experiments are listed. Each experiment was done with at least three replicates for different treatments and non-treatment controls. From these test plates, 200 μL were taken and placed into two separate plates for 3 and 6 days. Plates were then sealed with a titer-top and placed into anaerobic boxes and incubated in an anaerobic incubator at 30° C.
(§3) At each time point, sulfide samples were taken, and enumeration plates were made. Enumeration plates were made to determine the log growth in each dosed sample. For this process, enumeration plates were prepared by adding 180 μL fresh media MB1250 containing 0.01 wt % ferrous ammonium sulfate. 20 μL was taken from each well of the challenge plates and transferred to the enumeration plates using a 20-200 μL multichannel pipette. Enumeration plates were mixed three times using the multichannel pipette and serial diluted down the plate tenfold (20 μL into 180 μL). This serial dilution process was repeated for all challenge plate rows giving a total of 6 enumeration plates.
(§4) After 7 days these enumeration plates were read. The ferrous ammonium sulfate in each plate would be converted to iron sulfide, changing wells with SRB growth from clear to black. By counting the number of black wells in a row, the log growth from the original well in the challenge plate can be determined.
(§5) To determine hydrogen sulfide production in each sample, sulfide samples were also taken from each challenge plate. From each well, 9 μL were taken and added to 60 μL of 2% zinc acetate with 0.02% acetic acid. Then, 180 μL of milliQ water was added. 60 μL of stock solution 1 containing 64% sulfuric acid, <1% Dimethyl-4-phenylenediamine (DMPD), water to 100% was added to each well on the plates. This was followed by 3 μL of stock solution 3 containing 50% Iron (III) chloride. All chemicals are ordered from Fisher Scientific and used as received. These were mixed three times and read after 15 minutes. The plates were read at 670 nm using a Biotek microplate reader. Absorbance readings were converted to mM using a standard curve and this was converted to parts per million using the molar mass of sulfur. […]

[2] = system: Desulfovibrio gabonensis 700201; experiment: as above; assay type: cell-based
Procedure: as §1, §2, §3, §4, §5

**Q.** For `O=C(CN1C(=O)c2cccc3cccc(c23)C1=O)NO` [C1], which H2S ([1]; 3 days, 6.4 PPM) is on record?
**A.** 9.8 PPM

**Q.** And the “Log (Growth)” value ([1]; 3 days, 6.4 PPM)?
**A.** 0.0

**Q.** And the H2S ([1]; 3 days, 12.8 PPM)?
**A.** 9.3 PPM

**Q.** What about the “Log (Growth)” value ([1]; 3 days, 12.8 PPM) of the same compound?
**A.** 0.0

**Q.** What about the H2S ([1]; 3 days, 25.6 PPM) of the same compound?
**A.** 9.1 PPM

**Q.** What about the “Log (Growth)” value ([1]; 3 days, 25.6 PPM) of the same compound?
**A.** 0.0

**Q.** What about the H2S ([1]; 3 days, 51.3 PPM) of the same compound?
**A.** 8.8 PPM

**Q.** What about the “Log (Growth)” value ([1]; 3 days, 51.3 PPM) of the same compound?
**A.** 0.0

**Q.** And the H2S ([1]; 3 days, 102.5 PPM)?
**A.** 8.6 PPM

**Q.** What about the “Log (Growth)” value ([1]; 3 days, 102.5 PPM) of the same compound?
**A.** 0.0

**Q.** What about the H2S ([1]; 3 days, 205.0 PPM) of the same compound?
**A.** 8.7 PPM

**Q.** What about the “Log (Growth)” value ([1]; 3 days, 205.0 PPM) of the same compound?
**A.** 0.0

**Q.** And the H2S ([1]; 6 days, 6.4 PPM)?
**A.** 8.1 PPM

**Q.** And the “Log (Growth)” value ([1]; 6 days, 6.4 PPM)?
**A.** 0.0

**Q.** And the H2S ([1]; 6 days, 12.8 PPM)?
**A.** 7.9 PPM

**Q.** And the “Log (Growth)” value ([1]; 6 days, 12.8 PPM)?
**A.** 0.0

**Q.** And the H2S ([1]; 6 days, 25.6 PPM)?
**A.** 7.3 PPM

**Q.** And the “Log (Growth)” value ([1]; 6 days, 25.6 PPM)?
**A.** 0.0

**Q.** What about the H2S ([1]; 6 days, 51.3 PPM) of the same compound?
**A.** 7.2 PPM

**Q.** What about the “Log (Growth)” value ([1]; 6 days, 51.3 PPM) of the same compound?
**A.** 0.0

**Q.** What about the H2S ([1]; 6 days, 102.5 PPM) of the same compound?
**A.** 7.5 PPM

**Q.** And the “Log (Growth)” value ([1]; 6 days, 102.5 PPM)?
**A.** 0.0

**Q.** And the H2S ([1]; 6 days, 205.0 PPM)?
**A.** 8.1 PPM

**Q.** And the “Log (Growth)” value ([1]; 6 days, 205.0 PPM)?
**A.** 0.0

**Q.** And the H2S ([2]; 3 days, 6.4 PPM)?
**A.** 12.4 PPM

**Q.** And the “Log (Growth)” value ([2]; 3 days, 6.4 PPM)?
**A.** 0.0

**Q.** And the H2S ([2]; 3 days, 12.8 PPM)?
**A.** 12.1 PPM

**Q.** And the “Log (Growth)” value ([2]; 3 days, 12.8 PPM)?
**A.** 0.0

**Q.** And the H2S ([2]; 3 days, 25.6 PPM)?
**A.** 11.1 PPM

**Q.** What about the “Log (Growth)” value ([2]; 3 days, 25.6 PPM) of the same compound?
**A.** 0.0

**Q.** And the H2S ([2]; 3 days, 51.3 PPM)?
**A.** 12.3 PPM

**Q.** And the “Log (Growth)” value ([2]; 3 days, 51.3 PPM)?
**A.** 0.0

**Q.** And the H2S ([2]; 3 days, 102.5 PPM)?
**A.** 10.5 PPM

**Q.** And the “Log (Growth)” value ([2]; 3 days, 102.5 PPM)?
**A.** 0.0

**Q.** What about the H2S ([2]; 3 days, 205.0 PPM) of the same compound?
**A.** 10.0 PPM

**Q.** What about the “Log (Growth)” value ([2]; 3 days, 205.0 PPM) of the same compound?
**A.** 0.0

**Q.** What about the H2S ([2]; 6 days, 6.4 PPM) of the same compound?
**A.** 18.1 PPM

**Q.** What about the “Log (Growth)” value ([2]; 6 days, 6.4 PPM) of the same compound?
**A.** 0.0

**Q.** What about the H2S ([2]; 6 days, 12.8 PPM) of the same compound?
**A.** 10.4 PPM

**Q.** And the “Log (Growth)” value ([2]; 6 days, 12.8 PPM)?
**A.** 0.0

**Q.** And the H2S ([2]; 6 days, 25.6 PPM)?
**A.** 9.4 PPM

**Q.** And the “Log (Growth)” value ([2]; 6 days, 25.6 PPM)?
**A.** 0.0

**Q.** And the H2S ([2]; 6 days, 51.3 PPM)?
**A.** 8.4 PPM

**Q.** And the “Log (Growth)” value ([2]; 6 days, 51.3 PPM)?
**A.** 0.0

**Q.** And the H2S ([2]; 6 days, 102.5 PPM)?
**A.** 8.6 PPM

**Q.** What about the “Log (Growth)” value ([2]; 6 days, 102.5 PPM) of the same compound?
**A.** 0.0

**Q.** And the H2S ([2]; 6 days, 205.0 PPM)?
**A.** 8.5 PPM

**Q.** What about the “Log (Growth)” value ([2]; 6 days, 205.0 PPM) of the same compound?
**A.** 0.0
